A short description of data set [1]: Pharmacokinetic study in rats (IV and PO). In kind it is in vivo, SD male rats. To be noted: Sprague-Dawley, rat, plasma, 30 mg/kg; SD male rats, PO, analyte parent drug HMS5552.
Procedure: Each group was divided into 2 subgroups (intravenous bolus group (IV) and gavage group (PO)).
Whole blood samples (about 0.2 mL per time point) were collected at pre-dose (0), 0.083, 0.25, 0.5, 1, 2, 4, 8, 12, and 24 hours post-dose by jugular vein puncture. All the blood samples were immediately transferred into labeled pre-chilled commercial microcentrifuge tubes containing 4 µL of 0.5M K2-EDTA and 10 µL of cocktail stabilizer. Samples were placed on wet ice until centrifugation (within 30 min). Plasma samples were then prepared by centrifuging the blood samples at approximately 4 °C, 3200xg for 10 minutes. Supernatant plasma was pipetted, then quickly frozen over dry ice, and then kept at -60 °C or lower temperature until LC-MS/MS analysis.
The plasma concentrations were subjected to a non-compartmental pharmacokinetic analysis by using the WinNonlin™ software program (version 6.3).
In data set [2] the test system is C57BL/6J mice. The experiment in a line: Oral glucose tolerance test (OGTT), glucose-lowering effect. Type of data set: in vivo. The settings on record: versus vehicle control group. As to the method:
(§1) There were 7 groups of mice, with 8 mice in each group. […] Oral glucose tolerance test (OGTT) was performed 1 hour after administration. The blood glucose level in mice was tested before administration (-60 min), before sugar administration (0 min), and at 15 min, 30 min, 60 min, and 120 min after sugar administration. In addition, 40 µl of blood was collected from the tail tip before sugar administration (0 min) and at 15 min after sugar administration to collect the plasma for an insulin level test.
(§2) All data was transferred into an Excel document. The blood glucose results were expressed in mg/dL and expressed as MEAN ± SEM. Differences between multiple groups were analyzed using Dunnett's method in one-way analysis of variance (ANOVA) or two-way analysis of variance (ANOVA) with Graphpad Prism 8 software for comparison, and the differences were considered statistically significant when the P value was less than 0.05.

The test system of data set [3] is C57BL/6J mice. The experiment in a line: Plasma insulin level test during OGTT. To be noted: each dose group of HMS5552 versus vehicle control group. Type of data set: in vivo. As to the method: as §1, §2
A short description of data set [4]: High-temperature and high-humidity stability test of hydrochloride crystal form B. In kind it is physicochemical.
Data set [5] can be described thus: Dynamic vapour sorption (DVS) test. In kind it is physicochemical. The settings on record: relative humidity of less than or equal to 90%; listed as crystal form B of the hydrochloride.
Procedure: A certain amount of powder was taken and put into a sample pan, and hygroscopicity of the sample was evaluated with DVS according to the following instrument method:
The nature of data set [6]: Preliminary solubility test in solvents at room temperature. Type of data set: physicochemical. The settings on record: for Solubility (mg/mL): listed as crystal form B of the hydrochloride. As to the method:
Table 10 Solubility range of the starting material sample at room temperature
The solubility range in the corresponding solvent was calculated based on the mass of the sample and the volume of the added solvent, as shown in Table 28. The data were used as a base to guide the selection of solvent in screening tests. Table 28 Preliminary solubility of crystal form A of the free state at room temperature
The solubility range in the corresponding solvent was calculated based on the mass of the sample and the volume of the added solvent, as shown in Table 35. The data were used as a base to guide the selection of solvent in the screening tests.

Where a name gives a salt, the structure may show the parent alone. Some results are limits rather than exact numbers.

Broadly, the bioavailability is dose-corrected exposure relative to a reference, in per cent. As to `CC(C)C[C@@H](C(=O)Nc1ccn(C[C@@H](O)CO)n1)N1CC(Oc2ccccc2Cl)=CC1=O` [HMS5552, (S)-2-(4-(2-chlorophenoxy)-2-oxo-2,5-dihydro-1H-pyrrol-1-yl)-N-(1-((R)-2,3-dihydroxypropyl)-1H-pyrazol-3-yl)-4-methylpentanamide, reference compound], in data set [1], the bioavailability stood at 51.2%. For the same compound, the “blood glucose level at 0 min (pre-glucose)” value in the data set on C57BL/6J mice [2] (C57BL/6J mice, oral, 1 hour after administration, dose-response relationship) is reported as “generally lower than that of the vehicle control group”. Also, the “blood glucose values after glucose administration” value in the data set on C57BL/6J mice [2] (HMS5552-40mg/kg group, at 30 min, 60 min, and 120 min) is given as “significantly lower than that of the vehicle control group”. In the data set with C57BL/6J mice [3], the “insulin levels at 0 min and 15 min” value was “slightly higher than those in the vehicle control group, without significant difference”.

In general, solubility refers to how much of the substance goes into solution per volume. With `CC(C)C[C@@H](C(=O)Nc1ccn(C[C@@H](O)COC(=O)c2cccnc2)n1)N1CC(Oc2ccccc2Cl)=CC1=O` [Hydrochloride crystal form B], the “Purity (Area%)” value came to 99.72 Area% in data set [4] (25 °C/75%RH, Day 2); 99.56 Area% in data set [4] (25 °C/75%RH, Day 5); 99.64 Area% in data set [4] (25 °C/75%RH, Day 9); 99.67 Area% in data set [4] (40°C/75%RH, Day 2); 99.38 Area% in data set [4] (40°C/75%RH, Day 5); 99.33 Area% in data set [4] (40°C/75%RH, Day 9). In addition, the “Purity (Area%)” value in data set [4] (60°C, Day 2) is given as 99.55 Area%; in data set [4] (60°C, Day 5), 99.43 Area%; in data set [4] (60°C, Day 9), 99.55 Area%; in data set [4] (80°C, Day 2) it was 95.20 Area%; in data set [4] (80°C, Day 5), 94.65 Area%; in data set [4] (80°C, Day 9) it was 96.80 Area%. Also, the “Purity (Area%)” value in data set [4] (Starting point (table 25 °C/75%RH / 40°C/75%RH)) and in data set [4] (Starting point (table 60°C / 80°C)) was 99.72 Area% each time. For the same compound, the “stability under the high-temperature and high-humidity conditions” value in data set [4] (compared with crystal form A of the free state) is “not as stable as crystal form A of the free state”. Besides, the moisture-induced weight gain result in data set [5] was “less than 0.7%”. Also, the “Solubility (mg/mL)” value in data set [6] (1,4-Dioxane, room temperature) is on record as “S<1.0 mg/mL”; in data set [6] (DMAc, room temperature), “S>40.0 mg/mL”; in data set [6] (DMSO, room temperature), “S>42.0 mg/mL”; in data set [6] (H2O, room temperature), “S<1.0 mg/mL”; in data set [6] (MTBE, room temperature) it was “S<1.0 mg/mL”; in data set [6] (MeOH, room temperature (25±3 °C)), “S>36.0 mg/mL”. Further, the “Solubility (mg/mL)” value in data set [6] (NMP, room temperature) is listed as “S>42.0 mg/mL”; in data set [6] (Toluene, room temperature), “S<1.0 mg/mL”; in data set [6] (n-Heptane, room temperature) it was “S<1.0 mg/mL”. The solubility is below 1 mg/mL in data set [6] (2-methf, 25 °C, organic solvent or mixture, thermodynamic from solid, room temperature); below 1 mg/mL in data set [6] (acetone, 25 °C, organic solvent or mixture, thermodynamic from solid, room temperature); below 1.1 mg/mL in data set [6] (acn, 25 °C, organic solvent or mixture, thermodynamic from solid, room temperature); above 40 mg/mL in data set [6] (acn/h2o (1:1) v/v, room temperature); below 1.1 mg/mL in data set [6] (chcl3, 25 °C, organic solvent or mixture, thermodynamic from solid, CHCl3, room temperature); below 1 mg/mL in data set [6] (dcm, 25 °C, organic solvent or mixture, thermodynamic from solid, room temperature). Moreover, the solubility in data set [6] (dmf/h2o (1:1) v/v, room temperature) was 22 to 44 mg/mL; in data set [6] (etoac, 25 °C, organic solvent or mixture, thermodynamic from solid, room temperature), below 1 mg/mL; in data set [6] (etoh/h2o (1:1) v/v, room temperature), 22 to 44 mg/mL; in data set [6] (ipa, 25 °C, organic solvent or mixture, thermodynamic from solid, room temperature) it was below 1.1 mg/mL; in data set [6] (ipa/h2o (1:1) v/v, room temperature) it was above 40 mg/mL; in data set [6] (ipac, 25 °C, organic solvent or mixture, thermodynamic from solid, room temperature) it was below 1 mg/mL. Also, the solubility in data set [6] (meoh/h2o (1:1) v/v, room temperature) was 11 to 22 mg/mL; in data set [6] (mibk, 25 °C, organic solvent or mixture, thermodynamic from solid, room temperature), below 1 mg/mL; in data set [6] (thf, 25 °C, organic solvent or mixture, thermodynamic from solid, room temperature), below 1.1 mg/mL; in data set [6] (thf/h2o (1:1) v/v, room temperature), 20 to 40 mg/mL.

For the origin of these results see patent publication EP4682144A1, “SOLID FORM OF PYRROLIDONE DERIVATIVE AS GLUCOKINASE ACTIVATOR” (Hua Medicine (Shanghai) Ltd., priority 2023, dated 2024).
